Where two headings read alike, the source gives them in different places.
Key:
[1] = system: Wistar rats aged 3 months; assay: Object recognition in adult Wistar rats aged 3 months; type: in vivo, rat; details: male Wistar rats aged 3 months; 0.03 to 1 mg/kg by the oral route 60 minutes before each session; 24 hours between sessions
Excerpt: The object recognition test in the Wistar rat was initially developed by ENNACEUR and DECACOUR (Behav. Brain Res., 1988, 31, 47-59). The test is based on the spontaneous exploratory activity of the animal and has the characteristics of episodic memory in humans. This memory test is sensitive to ageing (SCALL et al., Eur. J. Pharmacol., 1997, 325, 173-180) and to cholinergic dysfunctions (BARTOLINI et al., Pharm. Biochem. Behav. 1996, 53(2), 277-283) and is based on the differences in the exploration of 2 objects of fairly similar shape—one familiar, the other new. Prior to the test, the animals (male Wistar rats aged 3 months: CERJ, France) are habituated to the environment (an enclosure without an object). In the course of a first session, the rats are placed (3 minutes) in the enclosure, in which there are 2 identical objects. The duration of exploration is measured for each object. In the course of the second session (3 minutes), 24 hours later, 1 of the 2 objects is replaced by a new object. The duration of exploration is measured for each object. The assessment criterion is the difference, Delta, expressed in seconds, between the exploration times for the new object and for the familiar object in the course of the second session.

[2] = system: Wistar rats aged 17 months; assay: Object recognition in Wistar rats aged 17 months; type: in vivo, rat; details: male Wistar rats aged 17 months; 0.1 mg/kg by the oral route; 1 hour between sessions
Protocol: In old rats there is a deficiency in memory retention in the object recognition test. Prior to the test, the animals (male Wistar rats aged 17 months: CERJ, France) are habituated to the environment (an enclosure without an object). In the course of a first session, the rats are placed (3 minutes) in the enclosure, in which there are 2 identical objects. The duration of exploration is measured for each object. In the course of the second session (3 minutes), 1 hour later, 1 of the 2 objects is replaced by a new object. The duration of exploration is measured for each object. The assessment criterion is the difference, Delta, expressed in seconds, between the exploration times for the new object and for the familiar object in the course of the second session.

AMPA receptors = assay: Effect of compounds on the ionic current induced by AMPA in Xenopus oocytes; type: cell-based; details: Xenopus oocytes injected with rat cerebral cortex mRNA, (S)-AMPA 10 μM, voltage-clamp
Protocol: mRNA's are prepared from cerebral cortex of male Wistar rats by the caesium chloride/guanidium thiocyanate method. The poly (A^+) mRNA's are isolated using the PolyATtract mRNA Isolation systems kit (Promega, USA) and injected at a level of 50 ng per oocyte. The oocytes are incubated for 3 to 4 days at 18° C. to permit expression of the receptors and are then stored at 4° C. until used.
Electrophysiological recordings are carried out continuously at ambient temperature in a Plexiglass® chamber using OR2 medium (J. Exp. Zool., 1973, 184, 321-334) by the “voltage-clamp” method using two electrodes, with a third electrode placed in the bath serving as reference.
All the compounds and the AMPA are applied via the perfusion medium. (S)-AMPA is used in a concentration of 10 μM. The ionic current induced by the application of AMPA in the absence and presence of compounds is measured. For each compound studied, the concentration that doubles (EC2×) or quintuples (EC5×) the intensity of the current induced by AMPA alone (5 to 50 nA) is determined.

O=S1(=O)NCN(CCF)c2ccc(Cl)cc21 [Example 1, 7-Chloro-4-(2-fluoroethyl)-3,4-dihydro-2H-1,2,4-benzothiadiazine 1,1-dioxide]
memory retention (object recognition, Delta of exploration times) [1]: significantly improves memory retention | age-related deficiency in memory retention (object recognition) [2]: significantly opposes the age-related deficiency in memory retention | concentration multiplying AMPA current (EC2× / EC5×) (AMPA receptors; read-out: EC2× (concentration that doubles the intensity of the current induced by AMPA alone)): 6.7 ± 1.4 µM | concentration multiplying AMPA current (EC2× / EC5×) (AMPA receptors; read-out: EC5× (concentration that quintuples the intensity of the current induced by AMPA alone)): 14.5 ± 0.6 µM
